From patent US9636418B2 (priority 2013, dated 2017)
Values joined by “and” are separate entries in the source; they are usually repeats but may differ in a detail not shown here. Equal entries are not always repeated.

How the values were obtained:
Assay in all cases: cell-based
hNav1.5 = hNav1.5 (Homo sapiens, UniProt Q14524); settings: IonWorks Quattro; read-out: IC50 Nav1.5
hNav1.4 = hNav1.4 (Homo sapiens, UniProt P35499); settings: for IC50: IonWorks Quattro, read-out: IC50 Nav1.4; for Nav1.4/Nav1.7: ratio of IonWorks Quattro IC50 values
hNav1.7 = hNav1.7 (Homo sapiens, UniProt Q15858); settings: IonWorks Quattro; read-out: IC50 Nav1.7
hNav1.3 = hNav1.3 (Homo sapiens, UniProt Q9NY46); settings: IonWorks Quattro; read-out: IC50 Nav1.3

Chain of hNav1.7 (Q15858 whole entry): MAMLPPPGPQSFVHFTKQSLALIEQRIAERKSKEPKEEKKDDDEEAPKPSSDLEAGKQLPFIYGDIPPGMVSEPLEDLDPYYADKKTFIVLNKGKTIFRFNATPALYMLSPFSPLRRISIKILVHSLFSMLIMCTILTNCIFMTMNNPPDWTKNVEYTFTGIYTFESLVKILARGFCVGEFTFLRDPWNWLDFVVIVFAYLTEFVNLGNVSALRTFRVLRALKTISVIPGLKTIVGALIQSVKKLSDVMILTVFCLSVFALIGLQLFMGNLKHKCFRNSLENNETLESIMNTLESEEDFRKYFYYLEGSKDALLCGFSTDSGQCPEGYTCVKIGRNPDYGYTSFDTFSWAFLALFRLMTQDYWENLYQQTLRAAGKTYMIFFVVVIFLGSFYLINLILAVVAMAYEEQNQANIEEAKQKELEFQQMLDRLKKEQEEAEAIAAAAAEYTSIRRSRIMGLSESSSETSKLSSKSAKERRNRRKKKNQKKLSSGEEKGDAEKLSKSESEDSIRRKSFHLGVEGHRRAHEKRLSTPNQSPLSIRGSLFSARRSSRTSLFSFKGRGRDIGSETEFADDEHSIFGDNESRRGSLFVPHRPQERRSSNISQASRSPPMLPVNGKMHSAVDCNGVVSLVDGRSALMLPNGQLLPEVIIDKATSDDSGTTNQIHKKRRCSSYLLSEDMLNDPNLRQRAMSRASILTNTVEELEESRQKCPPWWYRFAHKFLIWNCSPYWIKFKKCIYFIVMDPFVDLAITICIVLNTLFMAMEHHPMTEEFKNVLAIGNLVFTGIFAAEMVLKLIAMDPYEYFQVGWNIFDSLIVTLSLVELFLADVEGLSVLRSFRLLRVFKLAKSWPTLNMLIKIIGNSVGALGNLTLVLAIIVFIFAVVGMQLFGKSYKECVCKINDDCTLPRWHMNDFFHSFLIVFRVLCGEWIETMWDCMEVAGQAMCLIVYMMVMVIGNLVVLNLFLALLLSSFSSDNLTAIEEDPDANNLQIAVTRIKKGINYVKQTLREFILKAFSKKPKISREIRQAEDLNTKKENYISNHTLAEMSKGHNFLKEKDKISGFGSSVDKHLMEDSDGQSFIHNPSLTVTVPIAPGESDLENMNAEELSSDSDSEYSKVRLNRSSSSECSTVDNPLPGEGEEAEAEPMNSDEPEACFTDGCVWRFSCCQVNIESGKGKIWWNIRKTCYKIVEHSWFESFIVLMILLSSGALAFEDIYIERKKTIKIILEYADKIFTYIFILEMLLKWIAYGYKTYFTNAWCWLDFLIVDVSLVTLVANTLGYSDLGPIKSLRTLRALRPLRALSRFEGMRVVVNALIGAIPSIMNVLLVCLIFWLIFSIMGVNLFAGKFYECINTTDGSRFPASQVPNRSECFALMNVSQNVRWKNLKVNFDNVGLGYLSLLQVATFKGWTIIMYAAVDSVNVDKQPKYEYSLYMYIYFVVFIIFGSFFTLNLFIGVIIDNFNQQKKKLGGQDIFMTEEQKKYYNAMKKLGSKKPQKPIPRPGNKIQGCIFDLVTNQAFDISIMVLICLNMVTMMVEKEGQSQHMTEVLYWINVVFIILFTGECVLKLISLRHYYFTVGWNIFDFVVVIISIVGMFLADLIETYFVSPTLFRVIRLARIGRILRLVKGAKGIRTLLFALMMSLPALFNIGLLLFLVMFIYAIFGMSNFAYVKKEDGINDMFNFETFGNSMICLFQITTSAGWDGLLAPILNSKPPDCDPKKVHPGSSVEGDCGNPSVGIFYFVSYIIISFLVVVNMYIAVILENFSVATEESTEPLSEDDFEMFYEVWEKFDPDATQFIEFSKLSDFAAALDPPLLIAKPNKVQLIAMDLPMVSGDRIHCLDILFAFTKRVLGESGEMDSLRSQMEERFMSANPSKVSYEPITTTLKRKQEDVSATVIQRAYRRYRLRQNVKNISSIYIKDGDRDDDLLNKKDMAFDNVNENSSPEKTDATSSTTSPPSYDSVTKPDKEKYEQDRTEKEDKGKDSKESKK
Chain of hNav1.5 (Q14524 whole entry): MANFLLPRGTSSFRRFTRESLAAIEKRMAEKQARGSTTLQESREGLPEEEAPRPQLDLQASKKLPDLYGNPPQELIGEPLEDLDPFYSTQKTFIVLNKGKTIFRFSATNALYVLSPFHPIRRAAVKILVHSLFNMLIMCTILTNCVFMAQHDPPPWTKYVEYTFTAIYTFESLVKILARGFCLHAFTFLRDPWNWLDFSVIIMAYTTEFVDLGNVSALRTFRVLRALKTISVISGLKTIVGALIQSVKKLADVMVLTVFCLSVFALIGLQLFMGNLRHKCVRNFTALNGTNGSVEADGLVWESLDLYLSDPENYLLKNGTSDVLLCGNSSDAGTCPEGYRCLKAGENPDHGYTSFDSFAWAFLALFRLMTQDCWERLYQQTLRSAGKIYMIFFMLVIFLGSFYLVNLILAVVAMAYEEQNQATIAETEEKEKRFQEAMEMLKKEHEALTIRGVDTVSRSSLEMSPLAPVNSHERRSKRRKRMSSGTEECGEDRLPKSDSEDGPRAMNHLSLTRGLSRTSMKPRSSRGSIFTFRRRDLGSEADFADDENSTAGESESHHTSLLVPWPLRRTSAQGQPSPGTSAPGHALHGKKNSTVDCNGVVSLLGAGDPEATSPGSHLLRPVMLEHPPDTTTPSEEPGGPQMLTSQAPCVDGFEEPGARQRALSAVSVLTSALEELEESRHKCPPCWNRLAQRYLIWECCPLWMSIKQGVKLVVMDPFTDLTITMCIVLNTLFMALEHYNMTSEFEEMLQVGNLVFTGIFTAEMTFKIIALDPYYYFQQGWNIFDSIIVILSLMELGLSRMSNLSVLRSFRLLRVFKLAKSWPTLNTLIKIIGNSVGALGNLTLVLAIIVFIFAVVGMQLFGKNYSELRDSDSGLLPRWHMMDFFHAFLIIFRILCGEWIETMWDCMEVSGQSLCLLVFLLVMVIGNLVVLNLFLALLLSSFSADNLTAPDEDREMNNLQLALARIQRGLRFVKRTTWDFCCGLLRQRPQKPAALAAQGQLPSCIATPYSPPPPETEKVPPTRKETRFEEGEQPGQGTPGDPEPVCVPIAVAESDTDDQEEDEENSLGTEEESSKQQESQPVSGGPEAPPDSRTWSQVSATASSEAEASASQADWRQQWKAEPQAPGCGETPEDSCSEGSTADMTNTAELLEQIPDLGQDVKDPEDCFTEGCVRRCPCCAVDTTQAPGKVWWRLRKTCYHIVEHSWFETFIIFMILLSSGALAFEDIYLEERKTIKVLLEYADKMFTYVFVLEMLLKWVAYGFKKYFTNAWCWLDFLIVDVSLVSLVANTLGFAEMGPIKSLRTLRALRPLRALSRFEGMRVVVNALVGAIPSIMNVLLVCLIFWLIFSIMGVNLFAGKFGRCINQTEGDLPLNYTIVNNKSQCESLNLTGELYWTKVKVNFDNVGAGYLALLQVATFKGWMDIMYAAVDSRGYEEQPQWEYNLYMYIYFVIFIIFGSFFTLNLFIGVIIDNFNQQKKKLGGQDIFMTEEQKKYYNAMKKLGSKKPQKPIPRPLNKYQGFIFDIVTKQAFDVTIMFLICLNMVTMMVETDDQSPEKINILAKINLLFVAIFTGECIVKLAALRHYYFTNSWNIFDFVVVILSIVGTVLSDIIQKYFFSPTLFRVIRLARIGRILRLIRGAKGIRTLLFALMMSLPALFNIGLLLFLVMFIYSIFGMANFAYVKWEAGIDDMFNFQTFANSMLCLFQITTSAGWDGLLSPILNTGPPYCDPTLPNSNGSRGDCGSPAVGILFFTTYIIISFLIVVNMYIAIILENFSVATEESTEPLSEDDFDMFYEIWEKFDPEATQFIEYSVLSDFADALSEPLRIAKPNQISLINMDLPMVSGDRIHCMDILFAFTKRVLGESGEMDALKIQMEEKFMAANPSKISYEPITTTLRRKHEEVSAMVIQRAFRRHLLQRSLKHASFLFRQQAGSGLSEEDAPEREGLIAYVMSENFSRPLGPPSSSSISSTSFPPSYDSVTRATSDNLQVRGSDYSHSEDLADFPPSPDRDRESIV

Row | SMILES | IC50 (hNav1.5) | IC50 (hNav1.4) | IC50 (hNav1.7) | IC50 (hNav1.3) | Nav1.4/Nav1.7 (hNav1.4)
1 | CC[C@H](C)[C@H](NC(=O)[C@@H](NC(=O)[C@H](CCCCN)NC(=O)[C@H](CCCNC(=N)N)NC(=O)[C@@H]1CSSC[C@@H]2NC(=O)[C@H](C)NC(=O)[C@H](CCCNC(=N)N)NC(=O)[C@H](CCCCN)NC(=O)[C@H](CO)NC(=O)[C@H](CC(=O)O)NC(=O)[C@@H]3CSSC[C@H](NC(=O)[C@H](CCCNC(=N)N)NC(=O)[C@H](CC(C)C)NC(=O)CNC(=O)[C@H](CCC(=O)O)NC(=O)[C@H](CSSC[C@H](NC(=O)[C@@H](N)CCC(=O)O)C(=O)N[C@@H](CCC(N)=O)C(=O)N[C@@H](CCCCN)C(=O)N[C@@H](Cc4c[nH]c5ccccc45)C(=O)N[C@@H](CCSC)C(=O)N[C@@H](Cc4cccc5ccccc45)C(=O)N[C@@H]([C@@H](C)O)C(=O)N3)NC2=O)C(=O)N[C@@H](CCCCN)C(=O)N[C@@H](CC(C)C)C(=O)N[C@@H](Cc2c[nH]c3ccccc23)C(=O)N1)[C@@H](C)CC)C(N)=O [compound 281] | > 5 µM | 0.7 µM and 0.5 µM | 0.032 µM and 0.047 µM | 0.4 µM and 0.5 µM | –
2 | CC[C@H](C)[C@H](NC(=O)[C@H](Cc1ccc(O)cc1)NC(=O)[C@H](CCCCN)NC(=O)[C@H](CCCNC(=N)N)NC(=O)[C@@H]1CSSC[C@@H]2NC(=O)[C@H](C)NC(=O)[C@H](CCCNC(=N)N)NC(=O)[C@H](CCCCN)NC(=O)[C@H](CO)NC(=O)[C@H](CC(=O)O)NC(=O)[C@@H]3CSSC[C@H](NC(=O)[C@H](CCC(=O)O)NC(=O)[C@H](CC(C)C)NC(=O)CNC(=O)[C@H](CCC(=O)O)NC(=O)[C@H](CSSC[C@H](NC(=O)[C@@H](N)Cc4ccc(O)cc4)C(=O)N[C@@H](CCC(N)=O)C(=O)N[C@@H](CCCCN)C(=O)N[C@@H](Cc4c[nH]c5ccccc45)C(=O)N[C@@H](CCSC)C(=O)N[C@@H](CO)C(=O)N[C@@H]([C@@H](C)O)C(=O)N3)NC2=O)C(=O)N[C@@H](CCCCN)C(=O)N[C@@H](CC(C)C)C(=O)N[C@@H](Cc2c[nH]c3ccccc23)C(=O)N1)C(N)=O [compound 216] | > 7 µM and 5.4 µM | > 7 µM | 4.7 µM and 6.6 µM | > 7 µM | –
3 | CC[C@H](C)[C@H](NC(=O)[C@@H](NC(=O)[C@H](CCCCN)NC(=O)[C@H](CCCNC(=N)N)NC(=O)[C@@H]1CSSC[C@@H]2NC(=O)[C@H](C)NC(=O)[C@H](CCCNC(=N)N)NC(=O)[C@H](CCCCN)NC(=O)[C@H](CO)NC(=O)[C@H](CC(=O)O)NC(=O)[C@@H]3CSSC[C@H](NC(=O)[C@H](CCC(=O)O)NC(=O)[C@H](CC(C)C)NC(=O)CNC(=O)[C@H](CCC(=O)O)NC(=O)[C@H](CSSC[C@H](NC(=O)[C@@H](N)Cc4cn(CCCOCCOCCOCCOCCOCCOCCOCCOCCOCCOCCN)nn4)C(=O)N[C@@H](CCC(N)=O)C(=O)N[C@@H](CCCCN)C(=O)N[C@@H](Cc4c[nH]c5ccccc45)C(=O)N[C@@H](CCSC)C(=O)N[C@@H](Cc4c[nH]c5ccccc45)C(=O)N[C@@H]([C@@H](C)O)C(=O)N3)NC2=O)C(=O)N[C@@H](CCCCN)C(=O)N[C@@H](CC(C)C)C(=O)N[C@@H](Cc2c[nH]c3ccccc23)C(=O)N1)[C@@H](C)CC)C(N)=O [compound 165] | 15.1 µM | > 5 µM | 0.18 µM | > 5 µM | 28
4 | CC[C@H](C)[C@H](NC(=O)[C@H](Cc1ccc(O)cc1)NC(=O)[C@H](CCCCN)NC(=O)[C@H](CCCNC(=N)N)NC(=O)[C@@H]1CSSC[C@@H]2NC(=O)[C@H](C)NC(=O)[C@H](CCCNC(=N)N)NC(=O)[C@H](CCCCN)NC(=O)[C@H](CO)NC(=O)[C@H](CC(=O)O)NC(=O)[C@@H]3CSSC[C@H](NC(=O)[C@H](CCC(=O)O)NC(=O)[C@H](CC(C)C)NC(=O)CNC(=O)[C@H](CCC(=O)O)NC(=O)[C@H](CSSC[C@H](NC(=O)[C@@H](N)Cc4ccc(O)cc4)C(=O)N[C@@H](CCC(N)=O)C(=O)N[C@@H](CCCCN)C(=O)N[C@@H](CC(N)=O)C(=O)N[C@@H](CCSC)C(=O)N[C@@H](Cc4c[nH]c5ccccc45)C(=O)N[C@@H]([C@@H](C)O)C(=O)N3)NC2=O)C(=O)N[C@@H](CCCCN)C(=O)N[C@@H](CC(C)C)C(=O)N[C@@H](Cc2c[nH]c3ccccc23)C(=O)N1)C(N)=O [compound 201] | > 5 µM | > 5 µM | 4.2 µM and > 5 µM | > 5 µM | –
5 | CC[C@H](C)[C@H](NC(=O)[C@@H](NC(=O)[C@H](CCCCN)NC(=O)[C@H](CCCNC(=N)N)NC(=O)[C@@H]1CSSC[C@@H]2NC(=O)[C@H](C)NC(=O)[C@H](CCCNC(=N)N)NC(=O)[C@H](CCCCN)NC(=O)[C@H](CO)NC(=O)[C@H](CC(=O)O)NC(=O)[C@@H]3CSSC[C@H](NC(=O)[C@H](Cc4ccc(C(=O)O)cc4)NC(=O)[C@H](CC(C)C)NC(=O)CNC(=O)[C@H](CCC(=O)O)NC(=O)[C@H](CSSC[C@H](NC(=O)[C@@H](N)Cc4ccc(O)cc4)C(=O)N[C@@H](CCC(N)=O)C(=O)N[C@@H](CCCCN)C(=O)N[C@@H](Cc4c[nH]c5ccccc45)C(=O)N[C@@H](CCSC)C(=O)N[C@@H](Cc4c[nH]c5ccccc45)C(=O)N[C@@H]([C@@H](C)O)C(=O)N3)NC2=O)C(=O)N[C@@H](CCCCN)C(=O)N[C@@H](CC(C)C)C(=O)N[C@@H](Cc2c[nH]c3ccccc23)C(=O)N1)[C@@H](C)CC)C(N)=O [compound 114] | 14.2 µM | > 5 µM | 0.21 µM | > 5 µM | 24
6 | CCC[C@@H]1NC(=O)[C@H](CCCCN)NC(=O)[C@H](CCC(N)=O)NC(=O)[C@@H](NC(=O)[C@@H](N)Cc2ccc(O)cc2)CSSC[C@@H]2NC(=O)[C@@H]3CSSC[C@@H](C(=O)N[C@@H](CCCNC(=N)N)C(=O)N[C@@H](CCCCN)C(=O)N[C@@H](Cc4ccc(O)cc4)C(=O)N[C@H](C(N)=O)[C@@H](C)CC)NC(=O)[C@H](Cc4c[nH]c5ccccc45)NC(=O)[C@H](CC(C)C)NC(=O)[C@H](CCCCN)NC(=O)[C@H](CSSC[C@H](NC(=O)[C@H]([C@@H](C)O)NC(=O)[C@H](Cc4c[nH]c5ccccc45)NC(=O)[C@H](CCSC)NC1=O)C(=O)N[C@@H](CC(=O)O)C(=O)N[C@@H](CO)C(=O)N[C@@H](CCCCN)C(=O)N[C@@H](CCCNC(=N)N)C(=O)N[C@@H](C)C(=O)N3)NC(=O)[C@H](CCC(=O)O)NC(=O)[C@H](CC(C)C)NC(=O)CNC(=O)[C@H](CCC(=O)O)NC2=O [compound 198] | > 5 µM | > 5 µM | 3.3 µM | > 5 µM | –
7 | CC[C@H](C)[C@H](NC(=O)[C@H](Cc1ccc(O)cc1)NC(=O)[C@H](CCCCN)NC(=O)[C@H](CCCNC(=N)N)NC(=O)[C@@H]1CSSC[C@@H]2NC(=O)[C@H](C)NC(=O)[C@H](CCCNC(=N)N)NC(=O)[C@H](CCCCN)NC(=O)[C@H](CO)NC(=O)[C@H](CC(=O)O)NC(=O)[C@@H]3CSSC[C@H](NC(=O)[C@H](CCC(=O)O)NC(=O)[C@H](CC(C)C)NC(=O)CNC(=O)[C@H](CCC(=O)O)NC(=O)[C@H](CSSC[C@H](NC(=O)[C@@H](N)Cc4ccc(O)cc4)C(=O)N[C@@H](CCC(N)=O)C(=O)N[C@@H](CCCCN)C(=O)N[C@@H](Cc4c[nH]c5ccccc45)C(=O)N[C@@H](CCSC)C(=O)N[C@@H](CCC(=O)O)C(=O)N[C@@H]([C@@H](C)O)C(=O)N3)NC2=O)C(=O)N[C@@H](CCCCN)C(=O)N[C@@H](CC(C)C)C(=O)N[C@@H](Cc2c[nH]c3ccccc23)C(=O)N1)C(N)=O [compound 217] | > 7 µM | > 7 µM | > 7 µM | > 7 µM | –
8 | CC[C@H](C)[C@H](NC(=O)[C@@H](NC(=O)[C@H](CCCCN)NC(=O)[C@H](CCCNC(=N)N)NC(=O)[C@@H]1CSSC[C@@H]2NC(=O)[C@H](C)NC(=O)[C@H](CCCNC(=N)N)NC(=O)[C@H](CCCCN)NC(=O)[C@H](CO)NC(=O)[C@H](CC(=O)O)NC(=O)[C@@H]3CSSC[C@H](NC(=O)[C@H](CCC(=O)O)NC(=O)[C@H](CC(C)C)NC(=O)CNC(=O)[C@H](CCC(=O)O)NC(=O)[C@H](CSSC[C@H](NC(=O)[C@@H](N)Cc4ccc(O)cc4)C(=O)N[C@@H](CCC(N)=O)C(=O)N[C@@H](CCCCN)C(=O)N[C@@H](Cc4c[nH]c5ccccc45)C(=O)N[C@@H](CCSC)C(=O)N[C@@H](Cc4c[nH]c5ccccc45)C(=O)N[C@@H]([C@@H](C)O)C(=O)N3)NC2=O)C(=O)N[C@@H](CCCCN)C(=O)N[C@@H](Cc2cn(CCCOCCOCCOCCOCCOCCOCCOCCOCCOCCOCCN)nn2)C(=O)N[C@@H](Cc2c[nH]c3ccccc23)C(=O)N1)[C@@H](C)CC)C(N)=O [compound 183] | 19.2 µM | > 5 µM | ≥ 5 µM | > 5 µM | 1
9 | CC[C@H](C)[C@H](NC(=O)[C@H](Cc1cn(CCCOCCOCCOCCOCCOCCOCCOCCOCCOCCOCCN)nn1)NC(=O)[C@H](CCCCN)NC(=O)[C@H](CCCNC(=N)N)NC(=O)[C@@H]1CSSC[C@@H]2NC(=O)[C@H](C)NC(=O)[C@H](CCCNC(=N)N)NC(=O)[C@H](CCCCN)NC(=O)[C@H](CO)NC(=O)[C@H](CC(=O)O)NC(=O)[C@@H]3CSSC[C@H](NC(=O)[C@H](CCC(=O)O)NC(=O)[C@H](CC(C)C)NC(=O)CNC(=O)[C@H](CCC(=O)O)NC(=O)[C@H](CSSC[C@H](NC(=O)[C@@H](N)Cc4ccc(O)cc4)C(=O)N[C@@H](CCC(N)=O)C(=O)N[C@@H](CCCCN)C(=O)N[C@@H](Cc4c[nH]c5ccccc45)C(=O)N[C@@H](CCSC)C(=O)N[C@@H](Cc4c[nH]c5ccccc45)C(=O)N[C@@H]([C@@H](C)O)C(=O)N3)NC2=O)C(=O)N[C@@H](CCCCN)C(=O)N[C@@H](CC(C)C)C(=O)N[C@@H](Cc2c[nH]c3ccccc23)C(=O)N1)C(N)=O [compound 187] | 15.4 µM | > 5 µM | 1.77 µM | > 5 µM | 3
